Key:
[1] = test system: human multiple myeloma cell line, OPM-2; experiment: Cell viability assay (OPM-2 10 FBS), CellTiter-Glo; type: cell-based; conditions: Homo sapiens, OPM-2, 16 h, read-out: OPM-2 10% FBS IC50 IP, OPM-2 cells, 10% FBS, 16 h incubation
Outline: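 Serially diluted test compounds are incubated 16 h with cells (3000/well) in RPMI 1640 supplemented with 10% FBS. Viability is then measured by luminescence and IC50 calculated by 4-parameter logistic fit.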

[2] = target: recombinant human Mcl-1 (residues 171-327) / Bim interaction (Homo sapiens (Human), UniProt Q07820); experiment: biochemical; type: binding; conditions: 0.1 nM Mcl-1(171-327), 0.05 nM biotin-Bim (51-76); read-out: Mcl-1 HTRF IC50
Chain of recombinant human Mcl-1 (residues 171-327) / Bim interaction (Q07820 171-327): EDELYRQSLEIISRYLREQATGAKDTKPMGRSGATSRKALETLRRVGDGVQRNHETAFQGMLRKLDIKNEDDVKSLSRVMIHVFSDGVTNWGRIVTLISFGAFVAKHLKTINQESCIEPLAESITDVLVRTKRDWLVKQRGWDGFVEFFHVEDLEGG

SMILES: CO[C@]1(CN2CCN3CCCC[C@@H]3C2)/C=C/[C@H](C)[C@H](C)CS(=O)(=O)NC(=O)c2ccc3c(c2)N(C[C@@H]2CC[C@H]21)C[C@@]1(CCCc2cc(Cl)ccc21)CO3 [Example 161, (1S,3′R,6′R,7′R,8′E,10′S,11′S)-6-chloro-7′-methoxy-10′,11′-dimethyl-7′-((9aR)-octahydro-2H-pyrido[1,2-a]pyrazin-2-ylmethyl)-3,4-dihydro-2H,15′H-spiro[naphthalene-1,22′-[20]oxa[13]thia[1,14]diazatetracyclo [14.7.2.0~3,6~.0~19,24~]pentacosa[8,16,18,24]tetraen]-15′-one 13′,13′-dioxide]
- IC50 [1]: 113 nM
- IC50 [2]: 0.094 nM

SMILES: CO[C@@]1(CN2CC(C)(N(C)C)C2)/C=C/[C@H](C)[C@H](C)CS(=O)(=O)NC(=O)c2ccc3c(c2)N(C[C@@H]2CC[C@H]21)C[C@@]1(CCCc2cc(Cl)ccc21)CO3 [Example 162, (1S,3′R,6′R,7′S,8′E,10′S,11′S)-6-chloro-7′-((3-(dimethylamino)-3-methyl-1-azetidinyl)methyl)-7′-methoxy-10′,11′-dimethyl-3,4-dihydro-2H,15′H-spiro[naphthalene-1,22′-[20]oxa[13]thia[1,14]diazatetracyclo [14.7.2.0~3,6~.0~19,24~]pentacosa[8,16,18,24]tetraen]-15′-one 13′,13′-dioxide]
- IC50 [1]: 55 nM
- IC50 [2]: 0.072 nM

SMILES: CO[C@@]1(CN2CCN3CCCC[C@@H]3C2)/C=C/[C@H](C)[C@H](C)CS(=O)(=O)NC(=O)c2ccc3c(c2)N(C[C@@H]2CC[C@H]21)C[C@@]1(CCCc2cc(Cl)ccc21)CO3 [Example 163, (1S,3′R,6′R,7′S,8′E,10′S,11′S)-6-chloro-7′-methoxy-10′,11′-dimethyl-7′-((9aR)-octahydro-2H-pyrido[1,2-a]pyrazin-2-ylmethyl)-3,4-dihydro-2H,15′H-spiro[naphthalene-1,22′-[20]oxa[13]thia[1,14]diazatetracyclo [14.7.2.0~3,6~.0~19,24~]pentacosa[8,16,18,24]tetraen]-15′-one 13′,13′-dioxide]
- IC50 [1]: 130 nM
- IC50 [2]: 0.179 nM

SMILES: C[C@@H]1CS(=O)(=O)NC(=O)c2ccc3c(c2)N(C[C@@H]2CC[C@H]2[C@@](O)(CN2CCN(C4COC4)CC2)/C=C/[C@@H]1C)C[C@@]1(CCCc2cc(Cl)ccc21)CO3 [Example 165, (1S,3′R,6′R,7′R,8′E,10′S,11′S)-6-chloro-7′-hydroxy-10′,11′-dimethyl-7′-((4-(3-oxetanyl)-1-piperazinyl)methyl)-3,4-dihydro-2H,15′H-spiro[naphthalene-1,22′-[20]oxa[13]thia[1,14]diazatetracyclo [14.7.2.0~3,6~.0~19,24~]pentacosa[8,16,18,24]tetraen]-15′-one 13′,13′-dioxide]
- IC50 [1]: 182 nM
- IC50 [2]: 0.19 nM

SMILES: CCO[C@]1(CN2CCN(C3COC3)CC2)/C=C/[C@H](C)[C@H](C)CS(=O)(=O)NC(=O)c2ccc3c(c2)N(C[C@@H]2CC[C@H]21)C[C@@]1(CCCc2cc(Cl)ccc21)CO3 [Example 166, (1S,3′R,6′R,7′R,8′E,10′S,11′S)-6-chloro-7′-ethoxy-10′,11′-dimethyl-7′-((4-(3-oxetanyl)-1-piperazinyl)methyl)-3,4-dihydro-2H,15′H-spiro[naphthalene-1,22′-[20]oxa[13]thia[1,14]diazatetracyclo [14.7.2.0~3,6~.0~19,24~]pentacosa[8,16,18,24]tetraen]-15′-one 13′,13′-dioxide]
- IC50 [1]: 50 nM
- IC50 [2]: 0.107 nM

SMILES: COC[C@@H]1[C@@H](C)C/C=C/[C@@](CN2CCN(C3COC3)CC2)(OC)[C@@H]2CC[C@H]2CN2C[C@@]3(CCCc4cc(Cl)ccc43)COc3ccc(cc32)C(=O)NS1(=O)=O [Example 167, (1S,3′R,6′R,7′R,8′E,11′S,12′S)-6-chloro-7′-methoxy-12′-(methoxymethyl)-11′-methyl-7′-((4-(3-oxetanyl)-1-piperazinyl)methyl)-3,4-dihydro-2H,15′H-spiro[naphthalene-1,22′-[20]oxa[13]thia[1,14]diazatetracyclo [14.7.2.0~3,6~.0~19,24~]pentacosa[8,16,18,24]tetraen]-15′-one 13′,13′-dioxide]
- IC50 [1]: 52 nM
- IC50 [2]: 0.086 nM

SMILES: COC[C@@H]1[C@@H](C)C/C=C/[C@](CN2CCN3CCOC[C@@H]3C2)(OC)[C@@H]2CC[C@H]2CN2C[C@@]3(CCCc4cc(Cl)ccc43)COc3ccc(cc32)C(=O)NS1(=O)=O [Example 168, (1S,3′R,6′R,7′S,8′E,11′S,12′S)-6-chloro-7′-((9aS)-hexahydropyrazino[2,1-c][1,4]oxazin-8(1H)-ylmethyl)-7′-methoxy-12′-(methoxymethyl)-11′-methyl-3,4-dihydro-2H,15′H-spiro[naphthalene-1,22′-[20]oxa[13]thia[1,14]diazatetracyclo [14.7.2.0~3,6~.0~19,24~]pentacosa[8,16,18,24]tetraen]-15′-one 13′,13′-dioxide]
- IC50 [1]: 52 nM
- IC50 [2]: 0.138 nM

SMILES: COC[C@@H]1[C@@H](C)C/C=C/[C@](CN2CCN3CCCC[C@@H]3C2)(OC)[C@@H]2CC[C@H]2CN2C[C@@]3(CCCc4cc(Cl)ccc43)COc3ccc(cc32)C(=O)NS1(=O)=O [Example 169]
- IC50 [1]: 74 nM
- IC50 [2]: 0.14 nM

SMILES: COC[C@@H]1[C@@H](C)C/C=C/[C@](CN2CCN(C3COC3)CC2)(OC)[C@@H]2CC[C@H]2CN2C[C@@]3(CCCc4cc(Cl)ccc43)COc3ccc(cc32)C(=O)NS1(=O)=O [Example 170, (1S,3′R,6′R,7′S,8′E,11′S,12′S)-6-chloro-7′-methoxy-12′-(methoxymethyl)-11′-methyl-7′-((4-(3-oxetanyl)-1-piperazinyl)methyl)-3,4-dihydro-2H,15′H-spiro[naphthalene-1,22′-[20]oxa[13]thia[1,14]diazatetracyclo [14.7.2.0~3,6~.0~19,24~]pentacosa[8,16,18,24]tetraen]-15′-one 13′,13′-dioxide]
- IC50 [1]: 75 nM
- IC50 [2]: 0.131 nM

SMILES: CCO[C@]1(CN2CCN3CCOC[C@@H]3C2)/C=C/C[C@H](C)[C@@H](COC)S(=O)(=O)NC(=O)c2ccc3c(c2)N(C[C@@H]2CC[C@H]21)C[C@@]1(CCCc2cc(Cl)ccc21)CO3 [Example 171, (1S,3′R,6′R,7′R,8′E,11′S,12′S)-6-chloro-7′-ethoxy-7′-((9aS)-hexahydropyrazino[2,1-c][1,4]oxazin-8(1H)-ylmethyl)-12′-(methoxymethyl)-11′-methyl-3,4-dihydro-2H,15′H-spiro[naphthalene-1,22′-[20]oxa[13]thia[1,14]diazatetracyclo [14.7.2.0~3,6~.0~19,24~]pentacosa[8,16,18,24]tetraen]-15′-one 13′,13′-dioxide]
- IC50 [1]: 122 nM
- IC50 [2]: 0.074 nM

SMILES: COCC(COC)N1CCN(C[C@]2(OC)/C=C/C[C@H](C)[C@@H](COC)S(=O)(=O)NC(=O)c3ccc4c(c3)N(C[C@@H]3CC[C@H]32)C[C@@]2(CCCc3cc(Cl)ccc32)CO4)CC1 [Example 172, (1S,3′R,6′R,7′S,8′E,11′S,12′S)-6-chloro-7′-methoxy-7′-((4-(2-methoxy-1-(methoxymethyl)ethyl)-1-piperazinyl)methyl)-12′-(methoxymethyl)-11′-methyl-3,4-dihydro-2H,15′H-spiro[naphthalene-1,22′-[20]oxa[13]thia[1,14]diazatetracyclo [14.7.2.0~3,6~.0~19,24~]pentacosa[8,16,18,24]tetraen]-15′-one 13′,13′-dioxide]
- IC50 [1]: 55 nM
- IC50 [2]: 0.137 nM

SMILES: COC[C@@H]1[C@@H](C)C/C=C/[C@](CN2CCN(C(C)C)CC2)(OC)[C@@H]2CC[C@H]2CN2C[C@@]3(CCCc4cc(Cl)ccc43)COc3ccc(cc32)C(=O)NS1(=O)=O [Example 173]
- IC50 [1]: 323 nM
- IC50 [2]: 0.173 nM

SMILES: COC[C@@H]1[C@@H](C)C/C=C/[C@](CN2CCN(C(C)(C)C)CC2)(OC)[C@@H]2CC[C@H]2CN2C[C@@]3(CCCc4cc(Cl)ccc43)COc3ccc(cc32)C(=O)NS1(=O)=O [Example 174, (1S,3′R,6′R,7′S,8′E,11′S,12′S)-7′-((4-tert-butyl-1-piperazinyl)methyl)-6-chloro-7′-methoxy-12′-(methoxymethyl)-11′-methyl-3,4-dihydro-2H,15′H-spiro[naphthalene-1,22′-[20]oxa[13]thia[1,14]diazatetracyclo [14.7.2.0~3,6~.0~19,24~]pentacosa[8,16,18,24]tetraen]-15′-one 13′,13′-dioxide]
- IC50 [1]: 639 nM
- IC50 [2]: 0.322 nM

SMILES: CCO[C@]1(CN2CCN(C3COC3)CC2)/C=C/C[C@H](C)[C@@H](COC)S(=O)(=O)NC(=O)c2ccc3c(c2)N(C[C@@H]2CC[C@H]21)C[C@@]1(CCCc2cc(Cl)ccc21)CO3 [Example 175]
- IC50 [1]: 64 nM
- IC50 [2]: 0.069 nM

SMILES: COCC[C@@H]1[C@@H](C)C/C=C/[C@@](CN2CCN(C)CC2)(OC)[C@@H]2CC[C@H]2CN2C[C@@]3(CCCc4cc(Cl)ccc43)COc3ccc(cc32)C(=O)NS1(=O)=O [Example 178, (1S,3′R,6′R,7′R,8′E,11′S,12′R)-6-chloro-7′-methoxy-12′-(2-methoxyethyl)-11′-methyl-7′-((4-methyl-1-piperazinyl)methyl)-3,4-dihydro-2H,15′H-spiro[naphthalene-1,22′-[20]oxa[13]thia[1,14]diazatetracyclo [14.7.2.0~3,6~.0~19,24~]pentacosa[8,16,18,24]tetraen]-15′-one 13′,13′-dioxide]
- IC50 [1]: 71 nM
- IC50 [2]: 0.177 nM

SMILES: COCC[C@@H]1[C@@H](C)C/C=C/[C@](CN2CCN3CCOC[C@@H]3C2)(OC)[C@@H]2CC[C@H]2CN2C[C@@]3(CCCc4cc(Cl)ccc43)COc3ccc(cc32)C(=O)NS1(=O)=O [Example 179, (1S,3′R,6′R,7′S,8′E,11′S,12′R)-6-chloro-7′-((9aS)-hexahydropyrazino[2,1-c][1,4]oxazin-8(1H)-ylmethyl)-7′-methoxy-12′-(2-methoxyethyl)-11′-methyl-3,4-dihydro-2H,15′H-spiro[naphthalene-1,22′-[20]oxa[13]thia[1,14]diazatetracyclo [14.7.2.0~3,6~.0~19,24~]pentacosa[8,16,18,24]tetraen]-15′-one 13′,13′-dioxide]
- IC50 [1]: 36 nM
- IC50 [2]: 0.072 nM

— patent US10821115B2, “Compounds that inhibit Mcl-1 protein” (priority 2017, dated 2020)
